Experimental data: BindingDB's records for doi:10.7270/Q2QN656Q (The Scripps Research Institute Molecular Screening Center, 2010)
Several values for one entry are separate records, joined by “and”; a condition that tells them apart may be missing. Identical values can stand only once.

The molecules below were run against Serine/threonine-protein phosphatase PP1-alpha catalytic subunit (Homo sapiens, UniProt P62136) (assay: PP1 phosphatase inhibitors, dose response, biochemical, fluorescence (AID 2403)).
Serine/threonine-protein phosphatase PP1-alpha catalytic subunit, sequence (P62136 whole entry): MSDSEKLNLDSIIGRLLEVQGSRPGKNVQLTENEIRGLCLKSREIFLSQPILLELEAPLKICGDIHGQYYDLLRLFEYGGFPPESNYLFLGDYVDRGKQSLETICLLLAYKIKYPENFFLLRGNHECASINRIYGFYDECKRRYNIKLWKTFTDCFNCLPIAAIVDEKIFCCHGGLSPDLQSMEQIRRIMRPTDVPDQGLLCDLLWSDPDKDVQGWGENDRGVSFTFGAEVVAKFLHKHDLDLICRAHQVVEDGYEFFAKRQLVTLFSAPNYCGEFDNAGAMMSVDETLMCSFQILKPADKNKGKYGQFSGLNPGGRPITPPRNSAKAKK

Question: How did the IC50 turn out when `COc1ccc(CN=Nc2cc(C)nc(-n3nc(C)cc3C)n2)c(OC)c1` [MLS000589396] was run?
Answer: The IC50 was 6.68 µM.

Question: `COc1ccc(CN=Nc2cc(C)nc(-n3nc(C)cc3C)n2)cc1` [SMR000212741] was tested. Which IC50 did it give?
Answer: The IC50 was 5.81 µM.

Question: `CCOC(=O)c1sc(N2C(=O)C(=O)C(C(=O)c3ccco3)C2c2cccc([N+](=O)[O-])c2)nc1C` (stereo not given) [MLS001082998] was tested. Which IC50 did it give?
Answer: Its IC50 is 11.8 µM.

Question: How did the IC50 turn out when `CC1(C)Cc2c(nn(-c3ccccc3)c(=N)c2C#N)CO1` was run?
Answer: Its IC50 is 55.8 µM.

Question: How did the IC50 turn out when `O=C1OC(=O)[C@H]2[C@@H]1[C@@H]1CC[C@H]2O1` [(1R,2S,6R,7S)-4,10-Dioxa-tricyclo[5.2.1.0*2,6*]decane-3,5-dione] was run?
Answer: The IC50 was 4.12 µM and 2.83 µM.
